Experimental data published in ChEMBL document CHEMBL5620416, “Design, synthesis and development of a dual inhibitor of Topoisomerase 1 and poly (ADP-ribose) polymerase 1 for efficient killing of cancer cells” (Eur J Med Chem, 2023).
Active and inactive are the calls of the source. No cut-off for these calls is given here.

Assays:
[1] = tested on: HCT-116; assay: Induction of PARP1 trapping in human HCT-116 cells assessed as change in PARP1 level in chromatin fraction at 20 uM incubated for 4 to 8 hrs by SDS PAGE analysis; format: functional, cell-based; conditions: time 4-8 hrs
[2] = tested on: DNA topoisomerase 1/Deoxyribonucleic acid (Homo sapiens); assay: Induction of TOP1-DNA covalent complex stabilization in human HCT-116 cells at 10 to 20 uM after 4 to 6 hrs by RADAR assay; format: cell-based; conditions: dose 10-20 µM, time 4-6 hrs
[3] = tested on: HCT-116; assay: Induction of cell cycle arrest in human HCT-116 cells assessed as accumulation of cells at G2 phase at 10 uM incubated for 48 hrs by PI staining based flow cytometry analysis (reference value: 26%); format: functional
[4] = tested on: DNA topoisomerase 1/Deoxyribonucleic acid (Homo sapiens); assay: Induction of TOP1-DNA covalent complex degradation in human HCT-116 cells at 20 uM measured upto 24 hrs by RADAR assay; format: cell-based
[5] = tested on: HCT-116; assay: Induction of cell cycle arrest in human HCT-116 cells assessed as accumulation of cells at Sub-G1 phase at 10 uM incubated for 24 hrs by PI staining based flow cytometry analysis (reference value: 1.1 +/- 0.1%); format: functional
[6] = tested on: MCF-10A; assay: Cytotoxicity against human MCF-10A cells at 50 uM incubated for 72 hrs by MTT assay; format: toxicity, cell-based
[7] = tested on: HCT-116; assay: Induction of cell cycle arrest in human HCT-116 cells assessed as accumulation of cells at Sub-G1 phase at 20 uM incubated for 48 hrs by PI staining based flow cytometry analysis (reference value: 2.7 +/- 0.4%); format: functional
[8] = tested on: HCT-116; assay: Induction of cell cycle arrest in human HCT-116 cells assessed as accumulation of cells at G2 phase at 20 uM incubated for 48 hrs by PI staining based flow cytometry analysis (reference value: 26%); format: functional
[9] = tested on: MIA PaCa-2; assay: Cytotoxicity against human MIA PaCa-2 cells incubated for 72 hrs by MTT assay; format: functional, cell-based; conditions: MIA PaCa-2, 72 h
[10] = tested on: HCT-116; assay: Induction of cell cycle arrest in human HCT-116 cells assessed as accumulation of cells at Sub-G1 phase at 5 uM incubated for 24 hrs by PI staining based flow cytometry analysis (reference value: 1.1 +/- 0.1%); format: functional
[11] = target: T1, DNA topoisomerase 1 (Homo sapiens) (UniProt P11387); assay: Induction of TOP1 degradation in human HCT-116 cells at 20 uM after 2 to 24 hrs by alkaline lysis method; format: cell-based; conditions: time 2-24 hrs
T1 sequence (whole entry): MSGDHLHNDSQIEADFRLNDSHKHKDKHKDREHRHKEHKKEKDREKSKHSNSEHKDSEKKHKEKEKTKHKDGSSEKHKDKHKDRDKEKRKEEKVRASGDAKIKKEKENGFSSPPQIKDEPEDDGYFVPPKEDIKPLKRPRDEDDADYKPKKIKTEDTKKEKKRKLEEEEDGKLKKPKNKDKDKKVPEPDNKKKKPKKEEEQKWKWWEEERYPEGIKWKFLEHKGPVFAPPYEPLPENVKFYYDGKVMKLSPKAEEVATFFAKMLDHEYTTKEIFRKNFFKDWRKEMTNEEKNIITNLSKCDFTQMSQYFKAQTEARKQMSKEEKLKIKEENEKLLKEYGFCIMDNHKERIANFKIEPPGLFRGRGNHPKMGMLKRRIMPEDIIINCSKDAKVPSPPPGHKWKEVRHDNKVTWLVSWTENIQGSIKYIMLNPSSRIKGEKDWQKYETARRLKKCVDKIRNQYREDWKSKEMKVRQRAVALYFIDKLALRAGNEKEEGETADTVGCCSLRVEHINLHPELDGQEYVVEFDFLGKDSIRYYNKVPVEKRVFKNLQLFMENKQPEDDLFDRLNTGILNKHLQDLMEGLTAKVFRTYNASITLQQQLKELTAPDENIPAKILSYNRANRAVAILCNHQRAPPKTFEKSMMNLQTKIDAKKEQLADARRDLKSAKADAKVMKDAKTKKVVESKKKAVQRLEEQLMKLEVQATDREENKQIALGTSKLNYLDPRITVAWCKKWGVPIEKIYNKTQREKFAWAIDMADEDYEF

[12] = Stability in human plasma assessed as compound degradation incubated for 15 mins by HPLC analysis; format: ADME, cell-free; conditions: read-out: Drug degradation
[13] = tested on: HCT-116; assay: Induction of cell cycle arrest in human HCT-116 cells assessed as accumulation of cells at Sub-G1 phase at 10 uM incubated for 48 hrs by PI staining based flow cytometry analysis (reference value: 2.7 +/- 0.4%); format: functional

O=C1c2cccc3cccc(c23)C(=O)N1CCSc1nnc(Cn2nc(Cc3ccc(F)cc3)c3ccccc3c2=O)o1
Activity [1]: inactive
Activity [2]: Active
Activity [3]: 32%
Activity [4]: Active
Activity [5]: 30.8%
Activity [6]: > 80%
Activity [7]: 57%
Activity [8]: 34%
IC50 [9]: 4.5 µM
Activity [10]: 23.8%
Activity [11]: Active
metabolised at 0.25 h [12]: 20%
Activity [13]: 44.2%
